This note sets out measurements from article PMC11340618 (iScience, 2024).

The subject of this experiment is intracellular Mtb ΔptpA mutant in THP-1 cells. The format is cell-based, Mycobacterium tuberculosis.

Structures are written as SMILES.

Consider `O=C(NCc1ccccn1)Nc1cc(N2CC(CCc3ccccc3)CC2=O)ccn1` (stereo not shown) [P-4423632], for which the “dose-dependent activity against intracellular Mtb” value was “not against a ΔptpA mutant”.
